From patent US4097595A, “7-Amino-thiazolyl acetamido cephalosporanic acids” (Roussel Uclaf, priority 1976, dated 1978)
Values after ≈ are worked out from the molar mass of the structure shown. Read-outs that look alike come from different tables or passages of the source.

Legend:
Type in all cases: cell-based
[1] = system: Staphylococcus aureus UC 1 061 (penicillin sensible); experiment: MIC, dilution method in liquid media, Staphylococcus aureus UC 1061, penicillin sensible; details: penicillin sensible
Description: (§1) A series of tubes were prepared with the same quantity of sterile nutrive media and increasing quantities of the test product was distributed to each tube. Then, each tube was seeded with a bacterial strain and after incubation at 37° C for 24 or 48 hours, the inhibition of the growth was determined by transillumination which permitted determination of the minimum inhibitory concentrations (M.I.C.) in μg/ml.

Salmonella Typhimurium = experiment: MIC, dilution method in liquid media, Salmonella Typhimurium; details: Salmonella enterica, strain 420 (Tables II, IV)
Description: as §1

Bacillus subtilis = experiment: MIC, dilution method in liquid media, Bacillus subtilis
Description: as §1

[2] = system: Staphylococcus aureus 54 146; experiment: MIC, dilution method in liquid media, Staphylococcus aureus 54 146
Description: as §1

[3] = system: Proteus mirabilis (indol); experiment: MIC, dilution method in liquid media, Proteus mirabilis (indol)
Description: as §1

[4] = system: Staphylococcus aureus UC 1128 (penicillin resistant); experiment: MIC, dilution method in liquid media, Staphylococcus aureus UC 1128, penicillin resistant
Description: as §1

[5] = system: Streptococcus faecalis 5 432; experiment: MIC, dilution method in liquid media, Streptococcus faecalis 5 432
Description: as §1

[6] = system: Streptococcus pyogenes A 561; experiment: MIC, dilution method in liquid media, Streptococcus pyogenes A 561
Description: as §1

[7] = system: Escherichia Coli (T) 0 26 B 6; experiment: MIC, dilution method in liquid media, Escherichia Coli (T) 026 B6
Description: as §1

[8] = system: Escherichia Coli UC 1 020; experiment: MIC, dilution method in liquid media, Escherichia Coli UC 1 020
Description: as §1

[9] = system: Escherichia Coli R 55 123 D; experiment: MIC, dilution method in liquid media, Escherichia Coli R 55 123 D; details: COLIR55123D
Description: as §1

[10] = system: Escherichia Coli UC 1 261; experiment: MIC, dilution method in liquid media, Escherichia Coli UC 1 261; details: read-out: MIC
Description: as §1

[11] = system: Klebsiella pneumoniae 52 145; experiment: MIC, dilution method in liquid media, Klebsiella pneumoniae 52 145
Description: as §1

[12] = system: Bacillus subtilis ATCC 6 633; experiment: MIC, dilution method in liquid media, Bacillus subtilis ATCC 6 633
Description: as §1

[13] = system: Staphylococcus aureus ATCC 6 538; experiment: MIC, dilution method in liquid media, Staphylococcus aureus ATCC 6 538
Description: as §1

[14] = system: Streptococcus faecalis 99 F 74; experiment: MIC, dilution method in liquid media, Streptococcus faecalis 99 F 74; details: Enterococcus faecalis
Description: as §1

Serratia RG 2 532 = experiment: MIC, dilution method in liquid media, Serratia RG 2 532
Description: as §1

[15] = Staphylococcus aureus, 54146, 24 h, read-out: MIC
[16] = Staphylococcus aureus, 54146, 48 h, read-out: MIC
[17] = Enterococcus faecalis, 5432, 24 h, read-out: MIC
[18] = Klebsiella pneumoniae, 52145, 24 h, read-out: MIC
[19] = Klebsiella pneumoniae, 52145, 48 h, read-out: MIC

## Nc1nc(CC(=O)NC2C(=O)N3C(C(=O)O)=C(CSC(=O)c4csc(=O)[nH]4)CSC23)cs1 (stereo not drawn) [Example 4, 7-[2-(2-amino-4-thiazolyl)-acetamido]-3-[{(2-oxo-(3H)-thiazolin-4-yl)-carbonyl}-thiomethyl]-ceph-3-eme-4-carboxylic acid]
[1]; UC1, 24 H
  MIC: 0.2 mg/L (≈ 0.389 µM)
[1]; UC1, 48 H
  MIC: 0.5 mg/L (≈ 0.974 µM)
Salmonella Typhimurium; 24 H
  MIC: 3 mg/L (≈ 5.84 µM)
Salmonella Typhimurium; 48 H
  MIC: 3 mg/L (≈ 5.84 µM)
Bacillus subtilis; 24 h, read-out: MIC
  MIC: 0.1 mg/L (≈ 0.195 µM)
Bacillus subtilis; 48 h
  MIC: 0.1 mg/L (≈ 0.195 µM)
[2]; [15]
  MIC: 0.5 mg/L (≈ 0.974 µM)
[2]; [16]
  MIC: 1 mg/L (≈ 1.95 µM)
[3]; 24 H, A 235, read-out: MIC
  MIC: 0.6 mg/L (≈ 1.17 µM)
[3]; 48 H, A 235, read-out: MIC
  MIC: 0.6 mg/L (≈ 1.17 µM)
[4]; UC1128, 24 H
  MIC: 1 mg/L (≈ 1.95 µM)
[4]; UC1128, 48 H
  MIC: 1 mg/L (≈ 1.95 µM)
[5]; [17]
  MIC: 10 mg/L (≈ 19.5 µM)
[5]; Enterococcus faecalis, 5432, 48 h
  MIC: > 40 mg/L
[6]; A561, 24 h
  MIC: 0.1 mg/L (≈ 0.195 µM)
[6]; A561, 48 h
  MIC: 0.2 mg/L (≈ 0.389 µM)
[7]; 24 h
  MIC: 2 mg/L (≈ 3.89 µM)
[7]; 48 h
  MIC: 3 mg/L (≈ 5.84 µM)
[8]; UC1, 24 h
  MIC: 2 mg/L (≈ 3.89 µM)
[8]; UC1, 48 h
  MIC: 2 mg/L (≈ 3.89 µM)
[9]; 24 h
  MIC: 5 mg/L (≈ 9.74 µM)
[9]; 48 h, read-out: MIC
  MIC: 10 mg/L (≈ 19.5 µM)
[10]; UC1, 24 h
  MIC: 1 mg/L (≈ 1.95 µM)
[10]; UC1, 48 h
  MIC: 1 mg/L (≈ 1.95 µM)
[11]; [18]
  MIC: 0.1 mg/L (≈ 0.195 µM)
[11]; [19]
  MIC: 0.2 mg/L (≈ 0.389 µM)

## Nc1nc(CC(=O)NC2C(=O)N3C(C(=O)O)=C(CSC(=O)c4ccco4)CS[C@H]23)cs1 (stereo partly drawn) [Example 5, 7-[2-(2-amino-4-thiazolyl)-acetamido]-3-[{(2-furyl)-carbonyl}thiomethyl]-ceph-3-eme-4-carboxylic acid]
[12]; ATCC6, 24 h
  MIC: 0.2 mg/L (≈ 0.416 µM)
[12]; ATCC6, 48 h
  MIC: 0.2 mg/L (≈ 0.416 µM)
[1]; UC1, 24 H
  MIC: 0.5 mg/L (≈ 1.04 µM)
[1]; UC1, 48 H
  MIC: 1 mg/L (≈ 2.08 µM)
Salmonella Typhimurium; 24 H
  MIC: 10 mg/L (≈ 20.8 µM)
[2]; [15]
  MIC: 1 mg/L (≈ 2.08 µM)
[2]; [16]
  MIC: 1 mg/L (≈ 2.08 µM)
[3]; 24 H, A 235, read-out: MIC
  MIC: 2 mg/L (≈ 4.16 µM)
[3]; 48 H, A 235, read-out: MIC
  MIC: 2 mg/L (≈ 4.16 µM)
[4]; UC1128, 24 H
  MIC: 1 mg/L (≈ 2.08 µM)
[4]; UC1128, 48 H
  MIC: 2 mg/L (≈ 4.16 µM)
[5]; [17]
  MIC: 5 mg/L (≈ 10.4 µM)
[5]; Enterococcus faecalis, 5432, 48 h, read-out: MIC
  MIC: 40 mg/L (≈ 83.2 µM)
[6]; A561, 24 h
  MIC: 0.1 mg/L (≈ 0.208 µM)
[6]; A561, 48 h
  MIC: 0.1 mg/L (≈ 0.208 µM)
[7]; 24 h
  MIC: 10 mg/L (≈ 20.8 µM)
[7]; 48 h
  MIC: 10 mg/L (≈ 20.8 µM)
[13]; ATCC6, 24 h, read-out: MIC
  MIC: 0.5 mg/L (≈ 1.04 µM)
[13]; ATCC6, 48 h, read-out: MIC
  MIC: 1 mg/L (≈ 2.08 µM)
[8]; UC1, 24 h, read-out: MIC
  MIC: 10 mg/L (≈ 20.8 µM)
[8]; UC1, 48 h, read-out: MIC
  MIC: 10 mg/L (≈ 20.8 µM)
[9]; 24 h, read-out: MIC
  MIC: 10 mg/L (≈ 20.8 µM)
[9]; 48 h, read-out: MIC
  MIC: 10 mg/L (≈ 20.8 µM)
[10]; UC1, 24 h
  MIC: 2 mg/L (≈ 4.16 µM)
[10]; UC1, 48 h
  MIC: 2 mg/L (≈ 4.16 µM)
[11]; Klebsiella pneumoniae, 52145, 24 h
  MIC: 0.4 mg/L (≈ 0.832 µM)
[11]; [19]
  MIC: 1 mg/L (≈ 2.08 µM)

## CCC(=O)SCC1=C(C(=O)O)N2C(=O)C(NC(=O)Cc3csc(N)n3)[C@H]2SC1 (stereo partly drawn) [Example 6, 7-[2-(2-amino-4-thiazolyl)-acetamido]-3-propionylthiomethyl-ceph-3-eme-4-carboxylic acid]
[12]; ATCC6, 24 h
  MIC: 0.1 mg/L (≈ 0.226 µM)
[12]; ATCC6, 48 h
  MIC: 0.1 mg/L (≈ 0.226 µM)
[1]; UC1, 24 H
  MIC: 0.6 mg/L (≈ 1.36 µM)
[1]; UC1, 48 H
  MIC: 0.6 mg/L (≈ 1.36 µM)
[14]; 99F74, 24 h
  MIC: 20 mg/L (≈ 45.2 µM)
[14]; 99F74, 48 h, read-out: MIC
  MIC: 40 mg/L (≈ 90.4 µM)
Salmonella Typhimurium; 24 H
  MIC: 5 mg/L (≈ 11.3 µM)
Salmonella Typhimurium; 48 H
  MIC: 5 mg/L (≈ 11.3 µM)
[2]; [15]
  MIC: 1 mg/L (≈ 2.26 µM)
[2]; Staphylococcus aureus, 54146, 48 h
  MIC: 2 mg/L (≈ 4.52 µM)
[3]; 24 H, A 235, read-out: MIC
  MIC: 10 mg/L (≈ 22.6 µM)
[3]; 48 h
  MIC: 20 mg/L (≈ 45.2 µM)
[4]; UC1128, 24 H
  MIC: 1 mg/L (≈ 2.26 µM)
[4]; UC1128, 48 H
  MIC: 1 mg/L (≈ 2.26 µM)
[6]; A561, 24 h
  MIC: 0.2 mg/L (≈ 0.452 µM)
[6]; A561, 48 h
  MIC: 0.2 mg/L (≈ 0.452 µM)
[7]; 24 h
  MIC: 40 mg/L (≈ 90.4 µM)
[7]; 48 h
  MIC: 40 mg/L (≈ 90.4 µM)
[13]; ATCC6, 24 h, read-out: MIC
  MIC: 0.2 mg/L (≈ 0.452 µM)
[13]; ATCC6, 48 h
  MIC: 0.4 mg/L (≈ 0.904 µM)
[8]; UC1, 24 h, read-out: MIC
  MIC: 10 mg/L (≈ 22.6 µM)
[8]; UC1, 48 h, read-out: MIC
  MIC: 10 mg/L (≈ 22.6 µM)
Serratia RG 2 532; RG2532, 24 h
  MIC: 10 mg/L (≈ 22.6 µM)
Serratia RG 2 532; RG2532, 48 h
  MIC: 10 mg/L (≈ 22.6 µM)
[10]; UC1, 24 h
  MIC: 10 mg/L (≈ 22.6 µM)
[10]; UC1, 48 h
  MIC: 10 mg/L (≈ 22.6 µM)
[11]; [18]
  MIC: 3 mg/L (≈ 6.78 µM)
[11]; Klebsiella pneumoniae, 52145, 48 h
  MIC: 5 mg/L (≈ 11.3 µM)
